Laboratory results as given in US6964959B2, “Use of a methylol-containing compound to treat tumors” (Carter Wallace, Inc., priority 1999, dated 2005).
Entries after “also recorded” stand apart in the source; their conditions may differ.

What was measured:
PA-1 = experiment: Flow cytometry cell cycle distribution / DNA debris, PA-1; type: cell-based, human
Experimental: Three×10^5 cells were seeded in plastic tissue culture flasks. […] Control cultures received an appropriate volume of Kollidine-17P. […] The percentage of DNA debris in the sub-G0/G1 region was assessed using cytofluorometric techniques.
For flow cytometry studies, 1×10^6 PA-1, SKOV-3, or NIH-3T3 cells were incubated for 24 h in appropriate media containing serum. […] Control cultures for each cell line were incubated in media containing 40 μl of 5% Kollidon 17PF alone. Forty-eight hours later, all cells were harvested by trypsinization and prepared for cytofluorometric analysis by standard methods. For example, harvested cells were resuspended in ice cold phosphate-buffered saline at a final cell density of 2×10^6 cells/ml. The cells then were stained for 30 min at room temperature in the dark with a solution of 0.05 mg/ml propidium iodide, 0.6% Igepal, and 1% sodium citrate. Flow cytometry was performed by FACScan (Becton Dickinson, Plymouth, England) using the ModFit LT program (Becton Dickinson). Statistical analysis was performed with the Kruskal Wallis non-parametric ANOVA test followed by Dunn's multiple comparisons test using Instat.
Three×10^5 cells were seeded in plastic tissue culture flasks. […] Control cultures received an appropriate volume of Kollidine-17P. After an additional 48 h, cells were harvested, stained with propidium iodide, and cell cycle distribution assessed using cytofluorometric techniques. Each value represents the percentage of cells in the noted cell cycle phases and is the mean±SEM of three determinations.

PARP = experiment: Western-blot analysis of PARP cleavage, PA-1 cells; type: cell-based, human; conditions: 24 h exposure to 50 or 100 μM
Experimental: Two×10^6 cells were seeded in 150 cm^2 tissue culture flasks. […] After an additional twenty-four hours, cells were harvested, cell number determined, and aliquots derived from equal cell numbers generated from each exposure condition. Total proteins from these whole cell lysates were separated by SDS-PAGE and transferred to nitrocellulose filters. Filters were then immunoblotted to detect intact PARP protein and cleavage fragments by using the clone C-2-10 mouse monoclonal anti-PARP antibody (Zymed Laboratories, San Francisco, Calif.). The resulting protein-antibody complexes were visualized by chemiluminescence techniques.
Western-blot analysis was used to assess of PARP cleavage. Two×10^6 cells were seeded into separate 75 cm^2 tissue culture flasks containing 20 ml of tissue culture media plus serum. […] Twenty-four hours after the addition of Taurolidine, cells were harvested, cell number determined, and aliquots containing an equal cell number were generated from each exposure condition. Total proteins from whole cell lysates generated from these aliquots were separated by SDS-PAGE and electrotransferred to nitrocellulose filters. Filters were then processed to detect intact PARP protein and cleavage fragments by using the clone C-2-10 mouse monoclonal anti-PARP antibody (Zymed Laboratories, San Francisco, Calif.). […]

[1] = test system: human and murine tumor cell lines; experiment: Growth inhibition, panel of selected human and murine tumor cell lines; type: cell-based; conditions: 72 h; 3 d exposure; panel of 12 selected human and murine tumor cell lines; read-out: IC50s, growth inhibition across all cell lines evaluated
Experimental: One ml of this cell suspension was added to each well of a 12 well cell culture plate that contained 3 ml of appropriate media plus serum. […] Control wells received 40 μl of 5% Kollidon 17PF alone. Seventy-two hours later, all cells were harvested by trypsinization and cell number determined electronically using a Coulter Model Z1 particle counter (Coulter Corp., Miami, Fla.) to assess cell growth inhibition. Each experiment was performed in duplicate and repeated a minimum of three times.
Cells were seeded at a density of 1-5×10^4 cells in each well of a 6 well tissue culture flask. […] After three days, cells were harvested by trypsinization and cell number determined electronically. Cell growth inhibition was determined by comparison to non-Taurolidine exposed control cultures. The IC50 was calculated as the concentration required to inhibit cell number by 50%.

[2] = test system: activated human T-cell cultures; experiment: Cytotoxic and apoptotic activity in activated human T-cell cultures; type: cell-based
Excerpt: This observation was confirmed using normal (non-tumor) primary cells derived from animals, which are known to be free of tumors.

glioblastoma multiforma = experiment: Clinical use in patients with advanced recurrent glioblastoma multiforma; type: in vivo, human
Experimental: Four patients, which were diagnosed with advanced recurrent glioblastoma multiforma, were treated with taurolidine. The prognosis for this group of patients was determined to be approximately 8 weeks of survival.

[3] = test system: TNF; interleukins 1, 6, and 10; VEGF; TGF; experiment: Angiogenesis factors in patients with metastatic colon cancer; type: in vivo, human; conditions: treated subjects compared to subjects receiving placebo
Experimental: Patients with metastatic colon cancer were treated with taurolidine and several factors controlling angiogenesis were measured.

human tumor cell lines = experiment: Tumor cell killing and apoptosis in culture; type: cell-based

Question: For O=S1(=O)CCN(CN2CCS(=O)(=O)NC2)CN1 [Taurolidine, Bis-(1,1-dioxoperhydro-1,2,4-thiadiazinyl-4)methane], which “cell cycle kinetics and distribution” value (PA-1; PA1, 24-hour exposure) is on record?
Answer: significantly reduced the percentage of cells in both the S- and G2/M-phases

Question: And the “effect on cell cycle distribution” value (PA-1; PA-1, 48 h exposure, up to 100 μM)?
Answer: little effect on the cell cycle; also recorded: little effect on cell cycle distribution

Question: What about the “DNA debris in the sub-G0/G1 region” value (PA-1; PA-1, 48 h exposure, 25-100 μM) of the same compound?
Answer: significantly increased DNA debris; also recorded: resulted in the appearance of DNA debris

Question: And the PARP cleavage (PARP)?
Answer: induced PARP cleavage; also recorded: resulted in PARP cleavage

Question: And the IC50 [1]?
Answer: 9.6 to 34.2 µM

Question: And the induction of apoptosis [2]?
Answer: did not produce cellular changes consistent with the induction of apoptosis

Question: What about the “patients in whom the tumor mass decreased or stayed the same” value (glioblastoma multiforma; 20 g infused intravenously over 6 hours twice a week, at least one 5 week regimen, four patients) of the same compound?
Answer: 3 out of the 4

Question: And the survival (glioblastoma multiforma; at 14 weeks after the initiation of therapy, prognosis approximately 8 weeks)?
Answer: each of the patients remains alive

Question: And the “factors controlling the growth of blood vessels (TNF; interleukins 1, 6, and 10; VEGF; TGF)” value [3]?
Answer: found to be decreased

Question: What about the “incubation time after which apoptosis of tumor cells is induced” value (human tumor cell lines; in culture) of the same compound?
Answer: as little as one hour

Question: And the “number of different human tumor cell lines killed” value (human tumor cell lines; ovarian, breast, brain, colon, prostate, urinary bladder, lung, melanomas, mesotheliomas, laryngeal carcinomas, leukemias, lymphomas)?
Answer: at least 28
